US8143393B2, “Substituted 4-amino-pyrrolotriazine derivatives useful for treating hyper-proliferative disorders and diseases associated with angiogenesis” (Bayer HealthCare LLC, priority 2005, dated 2012)

The compounds below were run against T1, FGFR-1 (Homo sapiens, UniProt P11362) (assay: FGFR-1 TR-FRET biochemical assay). Settings: 0.6 uM ATP, 5 nM FGFR1-GST; bounds given in nM.
T1 construct: GST; made in house
Protocol: FGFR-1TR-FRET Biochemical Assay
The FGFR-1 Assay was performed on half well 96-well opaque plates (Costar 3915) in a LANCE format. LANCE is a homogenous time resolved fluormetry based application available through Perkin Elmer. For this assay, 50 uL reactions were set up using: 0.6 uM ATP (Sigma), 25 nM poly GT-biotin (CIS BIO International), 2 nM Eu-labelled phospho-Tyr Ab (PY20 PerkinElmer), 10 nM Streptavidin-APC (Perkin Elmer), 5 nM FGFR1-GST (generated by DRT, Bayer Healthcare), 1% DMSO, 50 mM HEPES pH 7.5, 10 mM MgCl2, 0.1 mM EDTA, 0.015% Brij, 0.1 mg/ml BSA, 0.1% B-mercaptoethanol. All reactions were initiated with the addition of enzyme and were left to incubate for one hour at room temperature. Time-resolved fluorescence was then read on a Perkin Elmer VictorV Multilabel counter. The reading protocol uses an excitation wavelength at 340 nm and emission reads at both 615 and 665 nm. Signal was calculated as a ratio: (Flourescence at 665 nm/Flourescence at 615 nM)*10000 for each well. The background control used for this assay is the signal produced with all assay components excluding ATP. For IC50 generation, compounds were added prior to the enzyme initiation. A 50-fold stock plate was made with compounds serially diluted 1:5 in a 50% DMSO/50% dH2O solution. A 1 μL addition of the stock to the assay wells gave final compound concentrations ranging from 10 μM-0.128 nM in 1% DMSO. The data were expressed as percent inhibition: % inhibition=100−((Signal with inhibitor−background)/(Signal without inhibitor−background))*100.

T1 sequence (P11362 22-822): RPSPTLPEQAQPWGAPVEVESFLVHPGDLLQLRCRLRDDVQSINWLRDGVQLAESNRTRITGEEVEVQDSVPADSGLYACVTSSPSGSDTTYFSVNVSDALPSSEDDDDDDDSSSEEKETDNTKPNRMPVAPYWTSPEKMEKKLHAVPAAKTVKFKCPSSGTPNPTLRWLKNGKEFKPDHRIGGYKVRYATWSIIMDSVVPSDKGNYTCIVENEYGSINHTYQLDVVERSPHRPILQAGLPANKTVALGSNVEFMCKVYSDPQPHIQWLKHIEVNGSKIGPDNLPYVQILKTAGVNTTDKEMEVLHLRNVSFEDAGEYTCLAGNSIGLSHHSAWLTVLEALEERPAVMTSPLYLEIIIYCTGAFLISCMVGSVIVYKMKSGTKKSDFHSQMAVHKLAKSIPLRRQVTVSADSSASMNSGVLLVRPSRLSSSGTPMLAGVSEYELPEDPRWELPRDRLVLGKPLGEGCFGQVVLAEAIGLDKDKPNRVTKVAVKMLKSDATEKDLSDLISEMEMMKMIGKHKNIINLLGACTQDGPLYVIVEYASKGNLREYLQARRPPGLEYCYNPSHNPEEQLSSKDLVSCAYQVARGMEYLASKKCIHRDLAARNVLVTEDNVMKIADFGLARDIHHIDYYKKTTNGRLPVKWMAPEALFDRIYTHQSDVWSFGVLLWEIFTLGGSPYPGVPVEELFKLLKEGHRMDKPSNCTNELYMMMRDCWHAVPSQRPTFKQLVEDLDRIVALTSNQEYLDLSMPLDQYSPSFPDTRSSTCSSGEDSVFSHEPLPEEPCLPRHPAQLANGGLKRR

| SMILES | IC50 [nM] |
| --- | --- |
| Nc1ncnn2c(CCCN3CCOCC3)cc(-c3cc(F)c(NC(=O)Nc4cc(C(F)(F)F)ccc4F)cc3F)c12 [Example 190, N-{4-[4-amino-7-(3-morpholin-4-ylpropyl)pyrrolo[2,1-f][1,2,4]triazin-5-yl]-2,5-difluorophenyl}-N′-[2-fluoro-5-(trifluoromethyl)phenyl]urea] | < 10 |
| Cc1cc(-c2cc(CN3CCCOCC3)n3ncnc(N)c23)ccc1NC(=O)Nc1cc(C(F)(F)F)ccn1 [Example 180, 1-{4-[4-amino-7-(1,4-oxazepan-4-ylmethyl)pyrrolo[2,1-f][1,2,4]triazin-5-yl]-2-methylphenyl}-3-[4-(trifluoromethyl)pyridin-2-yl]urea] | < 10 |
| CC(C)(C)c1ccccc1NC(=O)Nc1ccc(-c2cc(CN3CCOCC3)n3ncnc(N)c23)cc1 [Example 49, N-{4-[4-amino-7-(morpholin-4-ylmethyl)pyrrolo[2,1-f][1,2,4]triazin-5-yl]phenyl}-N′-(2-tert-butylphenyl)urea] | > 100 |
| Nc1ncnn2c(CC3CNCCO3)cc(-c3ccc(NC(=O)Nc4cc(C(F)(F)F)ccc4F)c(F)c3)c12 (centres unmarked) [Example 276, N-{4-[4-amino-7-(morpholin-2-ylmethyl)pyrrolo[2,1-f][1,2,4]triazin-5-yl]-2-fluorophenyl}-N′-[2-fluoro-5-(trifluoromethyl)phenyl]urea] | 10 to 100 |
| Nc1ncnn2c(CCCN3CCNC(=O)C3)cc(-c3ccc(NC(=O)Nc4cc(C(F)(F)F)ccc4F)c(F)c3)c12 [Example 195, N-(4-{4-amino-7-[3-(3-oxopiperazin-1-yl)propyl]pyrrolo[2,1-f][1,2,4]triazin-5-yl}-2-fluorophenyl)-N′-[2-fluoro-5-(trifluoromethyl)phenyl]urea] | < 10 |
| CC(O)c1cc(-c2ccc(NC(=O)Nc3cc(C(F)(F)F)ccc3F)c(F)c2)c2c(N)ncnn12 (centres unmarked) [Example 252, N-{4-[4-amino-7-(1-hydroxyethyl)pyrrolo[2,1-f][1,2,4]triazin-5-yl]-2-fluorophenyl}-N′-[2-fluoro-5-(trifluoromethyl)phenyl]urea] | 10 to 100 |
| Nc1ncnn2c(CCCN3CCSCC3)cc(-c3ccc(NC(=O)Nc4cc(C(F)(F)F)ccc4F)c(F)c3)c12 [Example 196, N-{4-4-[4-amino-7-(3-thiomorpholin-4-ylpropyl)pyrrolo[2,1-f][1,2,4]triazin-5-yl]-2-fluorophenyl}-N′-[2-fluoro-5-(trifluoromethyl)phenyl]urea] | 10 to 100 |
| Nc1ncnn2c(CN3CCNCC3)cc(-c3ccc(NC(=O)Nc4cc(C(F)(F)F)ccc4F)cc3)c12 [Example 81, N-4-[4-amino-7-(piperazin-1-ylmethyl)pyrrolo[2,1-f][1,2,4]triazin-5-yl]phenyl-N′-[2-fluoro-5-(trifluoromethyl)phenyl]urea] | < 10 |
| Nc1ncnn2c(CN3CCOCC3)cc(-c3ccc(NC(=O)Nc4cccc(Cl)c4)c(F)c3)c12 [Example 66, N-4-[4-amino-7-(morpholin-4-ylmethyl)pyrrolo[2,1-f][1,2,4]triazin-5-yl]-2-fluorophenyl-N′-(3-chlorophenyl)urea] | 10 to 100 |
| Nc1ncnn2c(CN3CCCOCC3)cc(-c3ccc(NC(=O)Nc4cc(C(F)(F)F)ccn4)cc3)c12 [Example 176, N-{4-[4-amino-7-(1,4-oxazepan-4-ylmethyl)pyrrolo[2,1-f][1,2,4]triazin-5-yl]phenyl}-N′-[4-(trifluoromethyl)pyridin-2-yl]urea] | < 10 |
| Nc1ncnn2c(CCN3CCCC3)cc(-c3ccc(NC(=O)Nc4cc(C(F)(F)F)ccc4F)c(F)c3)c12 [Example 216, N-{4-[4-amino-7-(2-pyrrolidin-1-ylethyl)pyrrolo[2,1-f][1,2,4]triazin-5-yl]-2-fluorophenyl}-N′-[2-fluoro-5-(trifluoromethyl)phenyl]urea] | 10 to 100 |
| COC[C@@H]1CCCN1CCCc1cc(-c2ccc(NC(=O)Nc3cc(C(F)(F)F)ccc3F)c(F)c2)c2c(N)ncnn12 [Example 184, N-[4-(4-amino-7-{3-[(2S)-2-(methoxymethyl)pyrrolidin-1-yl]propyl}pyrrolo[2,1-f][1,2,4]triazin-5-yl)-2-fluorophenyl]-N′-[2-fluoro-5-(trifluoromethyl)phenyl]urea] | < 10 |
| Nc1ncnn2c(CCN3CCOCC3)cc(-c3cc(F)c(NC(=O)Nc4cc(C(F)(F)F)ccc4F)cc3F)c12 [Example 211, N-{4-[4-amino-7-(2-morpholin-4-ylethyl)pyrrolo[2,1-f][1,2,4]triazin-5-yl]-2,5-difluorophenyl}-N′-[2-fluoro-5-(trifluoromethyl)phenyl]urea] | 10 to 100 |
| Nc1ncnn2c(CN3CCOCC3)cc(-c3ccc(NC(=O)Nc4ccc(Cl)c(C(F)(F)F)c4)nc3)c12 [Example 19, N-{5-[4-amino-7-(morpholin-4-ylmethyl)pyrrolo[2,1-f][1,2,4]triazin-5-yl]pyridin-2-yl}-N′-[4-chloro-3-(trifluoromethyl)phenyl]urea] | < 10 |
| Nc1ncnn2c(CN3CCNC(=O)C3)cc(-c3cc(F)c(NC(=O)Nc4cc(C(F)(F)F)ccc4F)cc3F)c12 [Example 164, N-(4-{4-amino-7-[(3-oxopiperazin-1-yl)methyl]-pyrrolo [2,1-f][1,2,4]triazin-5-yl}-2,5-difluorophenyl)-N′-[2-fluoro-5-(trifluoromethyl)phenyl]urea] | < 10 |
| CC(C)(O)c1cc(-c2ccc(NC(=O)Nc3cc(C(F)(F)F)ccc3F)cc2)c2c(N)ncnn12 [Example 104, N-{4-[4-amino-7-(1-hydroxy-1-methylethyl)pyrrolo[2,1-f][1,2,4]triazin-5-yl]phenyl}-N′-[2-fluoro-5-(trifluoromethyl)phenyl]urea] | 10 to 100 |
| COc1cc(-c2cc(CN3CCOCC3)n3ncnc(N)c23)ccc1NC(=O)Nc1cc(C(F)(F)F)ccc1F [Example 36, N-{4-[4-amino-7-(morpholin-4-ylmethyl)pyrrolo[2,1-f][1,2,4]triazin-5-yl]-2-methoxyphenyl}-N′-[2-fluoro-5-(trifluoromethyl)phenyl]urea] | 10 to 100 |
| CC(C)(C)OC(=O)N1CCC(c2cc(-c3ccc(NC(=O)Nc4cc(C(F)(F)F)ccn4)c(F)c3)c3c(N)ncnn23)C1 (centres unmarked) [Example 208, tert-butyl 3-{4-amino-5-[3-fluoro-4-({[4-(trifluoromethyl)pyridin-2-yl]carbamoyl}amino)phenyl]pyrrolo[2,1-f][1,2,4]triazin-7-yl}pyrrolidine-1-carboxylate] | 10 to 100 |
| CC(=O)c1cc(-c2ccc(NC(=O)Nc3cc(C(F)(F)F)ccn3)c(F)c2)c2c(N)ncnn12 [Example 259, N-[4-(7-acetyl-4-aminopyrrolo[2,1-f][1,2,4]triazin-5-yl)-2-fluorophenyl]-N′-[4-(trifluoromethyl)pyridin-2-yl]urea] | < 10 |
| Nc1ncnn2c(CN3CCOCC3)cc(-c3ccc(NC(=O)Nc4cc(C(F)(F)F)ccn4)c(Cl)c3)c12 [Example 129, N-4-[4-amino-7-(morpholin-4-ylmethyl)pyrrolo[2,1-f][1,2,4]triazin-5-yl]-2-chlorophenyl-N′-[4-(trifluoromethyl)pyridin-2-yl]urea] | < 10 |
| Cc1cc(-c2cc(CN3CCOCC3)n3ncnc(N)c23)ccc1NC(=O)Nc1cc(F)cc(C(F)(F)F)c1 [Example 28, N-{4-[4-amino-7-(morpholin-4-ylmethyl)pyrrolo[2,1-f][1,2,4]triazin-5-yl]-2-methylphenyl}-N′-[3-fluoro-5-(trifluoromethyl)phenyl]urea] | < 10 |
| Cc1cc(NC(=O)Nc2cc(C(F)(F)F)ccc2F)c(F)cc1-c1cc(CN2CCOCC2)n2ncnc(N)c12 [Example 136, N-{4-[4-amino-7-(morpholin-4-ylmethyl)pyrrolo[2,1-f][1,2,4]triazin-5-yl]-2-fluoro-5-methylphenyl}-N′-[2-fluoro-5(trifluoromethyl)-phenyl]urea] | 10 to 100 |
| Cc1cc(NC(=O)Nc2cc(C(F)(F)F)ccc2F)ccc1-c1cc(CN2CCOCC2)n2ncnc(N)c12 [Example 29, N-{4-[4-amino-7-(morpholin-4-ylmethyl)pyrrolo[2,1-f][1,2,4]triazin-5-yl]-3-methylphenyl}-N′-[2-fluoro-5-(trifluoromethyl)phenyl]urea] | < 10 |
| COc1cc(-c2cc(CN3CCOCC3)n3ncnc(N)c23)ccc1NC(=O)Nc1ccc(F)c(C(F)(F)F)c1 [Example 32, N-{4-[4-amino-7-(morpholin-4-ylmethyl)pyrrolo[2,1-f][1,2,4]triazin-5-yl]-2-methoxyphenyl}-N′-[4-fluoro-3-(trifluoromethyl)phenyl]urea] | 10 to 100 |
| CC(C)S(=O)(=O)N1CCN(Cc2cc(-c3ccc(NC(=O)Nc4cc(C(F)(F)F)ccc4F)cc3)c3c(N)ncnn23)CC1 [Example 85, N-[4-(4-amino-7-{[4(isopropylsulfonyl)piperazin-1-yl]methyl}pyrrolo[2,1-f][1,2,4]triazin-5-yl)phenyl]-N′-[2-fluoro-5-(trifluoromethyl)phenyl]urea] | 10 to 100 |

Same assay, conditions: upper bound of the bin 'greater than 100 nM but less than 1 μM' (lower bound in E1)

| SMILES | IC50 [nM] |
| --- | --- |
| CC(C)(C)c1ccccc1NC(=O)Nc1ccc(-c2cc(CN3CCOCC3)n3ncnc(N)c23)cc1 [Example 49, N-{4-[4-amino-7-(morpholin-4-ylmethyl)pyrrolo[2,1-f][1,2,4]triazin-5-yl]phenyl}-N′-(2-tert-butylphenyl)urea] | < 1000 |
